pIC50: −log10 of the molar value. Counter-ions that a name gives are not always drawn.
Experiments:
[1] = molecular target: T1, EPAC2 (Mus musculus, UniProt Q9EQZ6); test: 8-NBD-cAMP competition binding assay; details: for Relative Potency (RA): RA = IC50, cAMP/ IC50, compound; for EPAC2 inhibitory activity (in words): 8-NBD-cAMP competition
T1 sequence (Q9EQZ6 1-1011): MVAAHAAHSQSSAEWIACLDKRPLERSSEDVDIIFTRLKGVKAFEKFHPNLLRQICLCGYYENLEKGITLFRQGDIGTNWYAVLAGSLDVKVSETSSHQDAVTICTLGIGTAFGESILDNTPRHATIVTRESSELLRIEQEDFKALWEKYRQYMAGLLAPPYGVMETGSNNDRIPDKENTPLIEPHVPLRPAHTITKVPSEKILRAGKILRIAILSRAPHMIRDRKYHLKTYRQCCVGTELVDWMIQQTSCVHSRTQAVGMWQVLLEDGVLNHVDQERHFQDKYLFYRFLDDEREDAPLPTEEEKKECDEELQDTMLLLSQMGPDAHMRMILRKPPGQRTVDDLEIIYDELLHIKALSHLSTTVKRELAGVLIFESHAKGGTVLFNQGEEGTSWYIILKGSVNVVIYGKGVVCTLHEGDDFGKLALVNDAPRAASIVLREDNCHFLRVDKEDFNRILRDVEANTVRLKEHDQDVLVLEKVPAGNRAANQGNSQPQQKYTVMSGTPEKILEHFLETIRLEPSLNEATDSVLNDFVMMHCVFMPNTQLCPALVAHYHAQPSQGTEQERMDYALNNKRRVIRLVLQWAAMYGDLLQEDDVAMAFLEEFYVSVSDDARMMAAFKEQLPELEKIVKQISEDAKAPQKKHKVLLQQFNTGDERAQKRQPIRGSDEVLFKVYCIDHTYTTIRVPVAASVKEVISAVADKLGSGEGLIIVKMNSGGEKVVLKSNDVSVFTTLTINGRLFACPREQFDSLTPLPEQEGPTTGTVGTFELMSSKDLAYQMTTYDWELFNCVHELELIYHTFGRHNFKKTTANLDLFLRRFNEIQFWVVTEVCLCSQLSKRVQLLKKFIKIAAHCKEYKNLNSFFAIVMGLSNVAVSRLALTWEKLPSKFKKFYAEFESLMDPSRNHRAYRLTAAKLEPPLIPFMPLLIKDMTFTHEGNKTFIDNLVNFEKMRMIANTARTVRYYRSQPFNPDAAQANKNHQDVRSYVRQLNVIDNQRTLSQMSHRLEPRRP

[2] = test system: type I PKA holoenzyme; test: Counter screening assay, type I PKA holoenzyme kinase activity; type: biochemical; details: 25 µM compound, 0.1 mM cAMP
[3] = test system: type II PKA holoenzyme; test: Counter screening assay, type II PKA holoenzyme kinase activity; type: biochemical; details: 25 µM compound, 0.1 mM cAMP

Structure (SMILES) | Relative Potency (RA) [1] | pIC50 [1] | further results
Cc1cc(C)c(S(=O)(=O)c2cc(C)c(C)cc2C)c(C)c1 [Compound 5a, 1,3,5-Trimethyl-2-(2,4,5-trimethylbenzenesulfonyl)benzene] | 57.1 |  | 
CCc1cccn1S(=O)(=O)c1ccc(C)cc1 [Compound 20b, 2-Ethyl-1-(toluene-4-sulfonyl)-1H-pyrrole] | 10 |  | 
Cc1cc(C)c(S(=O)(=O)n2ccc3ccncc32)c(C)c1 [Compound 24c, 1-(2,4,6-Trimethylbenzenesulfonyl)-1H-pyrrolo[2,3-c]pyridine] | 3.2 |  | 
Cc1cc(C)c(Nc2nc(C)c(C)s2)c(C)c1 [Compound 17, (4,5-Dimethylthiazol-2-yl)-(2,4,6-trimethylphenyl)amine] | <0.13 | < 3.52 | EPAC2 inhibitory activity (in words) [1]: no activity
Cc1cc(C)c(S(=O)(=O)n2ccc3cccnc32)c(C)c1 [Compound 24d, 1-(2,4,6-Trimethylbenzenesulfonyl)-1H-pyrrolo[2,3-b]pyridine] | 16.7 |  | EPAC2 inhibitory activity (in words) [1]: almost retained activity
Cc1cc(C)c(S(=O)(=O)c2ccc(OCCN)cc2)c(C)c1 [Compound 11d, 2-[4-(2,4,6-Trimethylbenzenesulfonyl)phenoxy]ethylamine] | <0.13 | < 3.52 | 
Cc1cc(C)c(S(=O)(=O)n2ccc3ccccc32)c(C)c1 [Compound 22a, 1-(2,4,6-Trimethylbenzenesulfonyl)-1H-indole] | 33.3 |  | EPAC2 inhibitory activity (in words) [1]: almost retained activity
CCc1cccn1S(=O)(=O)c1ccc(C(F)(F)F)cc1 [Compound 20e, 2-Ethyl-1-(4-trifluoromethyl-benzenesulfonyl)-1H-pyrrole] | <0.13 | < 3.52 | EPAC2 inhibitory activity (in words) [1]: dramatic loss of EPAC inhibitory activity
Cc1cc(C)c(Nc2cc(Cl)cc(Cl)c2)c(C)c1 [Compound 14b, (3,5-Dichlorophenyl)-(2,4,6-trimethylphenyl)amine] | 44.4 |  | 
Cc1cc(C)c(S(=O)(=O)n2ccc3ncccc32)c(C)c1 [Compound 24a, 1-(2,4,6-Trimethylbenzenesulfonyl)-1H-pyrrolo[3,2-b]pyridine] | 10.5 |  | 
Cc1cc(C)c(S(=O)(=O)c2ccc(OC3CCN(C(=O)OC(C)(C)C)CC3)cc2)c(C)c1 [Compound 11b, 4-[4-(2,4,6-Trimethylbenzenesulfonyl)phenoxy]-piperidine-1-carboxylic acid tert-butyl ester] | <0.13 | < 3.52 | 
Cc1ccc(Nc2c(C)cc(C)cc2C)cc1 [Compound 14a, p-Tolyl-(2,4,6-trimethylphenyl)amine] | 10.5 |  | 
CCc1cccn1S(=O)(=O)c1cc(C)cc(C)c1 [Compound 20g, 1-(3,5-Dimethylbenzenesulfonyl)-2-ethyl-1H-pyrrole] | 8.5 |  | 
Cc1cc(C)c(S(=O)(=O)c2ccc(O)cc2)c(C)c1 [Compound 10, 4-(2,4,6-Trimethylbenzenesulfonyl)phenol] | 3.0 |  | 
O=S(=O)(NCCNC/C=C/c1ccc(Br)cc1)c1cccc2cnccc12 [Compound H89, N-[2-[[3-(4-bromophenyl)-2-propenyl]amino]ethyl]-5-isoquinolinesulfonamide dihydrochloride, reference compound] |  |  | Effect on cAMP-induced type I PKA holoenzyme activation [2]: blocked the type I or II PKA activities completely; Effect on cAMP-induced type II PKA holoenzyme activation [3]: blocked the type I or II PKA activities completely
CCc1cccn1S(=O)(=O)c1ccccc1C [Compound 20f, 2-Ethyl-1-(toluene-2-sulfonyl)-1H-pyrrole] | 7.5 |  | 
COc1ccc(S(=O)(=O)c2c(C)cc(C)cc2C)cc1 [Compound 8b, 2-(4-Methoxybenzenesulfonyl)-1,3,5-trimethylbenzene] | 21.1 |  | 
Cc1cc(C)c(S(=O)(=O)n2ccc3cc(C(=O)O)ccc32)c(C)c1 [Compound 22c, 1-(2,4,6-Trimethylbenzenesulfonyl)-1H-indole-5-carboxylic acid] | 3.7 |  | EPAC2 inhibitory activity (in words) [1]: less active with a moderate potency
Cc1cc(C)c(S(=O)(=O)c2ccc(I)cc2)c(C)c1 [Compound 8a, 2-(4-Iodobenzenesulfonyl)-1,3,5-trimethylbenzene] | 10 |  | 
Cc1cc(C)c(S(=O)(=O)c2ccc(OC3CCCCC3)cc2)c(C)c1 [Compound 11a, 2-(4-Cyclohexyloxybenzenesulfonyl)-1,3,5-trimethylbenzene] | <0.13 | < 3.52 | 
Cc1cc(C)c(S(=O)(=O)c2ccc(OC3CCNCC3)cc2)c(C)c1 [Compound 11c, 4-[4-(2,4,6-Trimethylbenzenesulfonyl)phenoxy]piperidine] | <0.13 | < 3.52 | 
CCCCCc1ccc(S(=O)(=O)c2c(C)cc(C)cc2C)cc1 [Compound 5b, 1,3,5-Trimethyl-2-(4-pentylbenzenesulfonyl)benzene] | <0.13 | < 3.52 | 
CCc1cccn1S(=O)(=O)c1ccc(C)cc1C [Compound 20h, 1-(2,4-Dimethylbenzenesulfonyl)-2-ethyl-1H-pyrrole] | 30.8 |  | 
CCc1cccn1S(=O)(=O)c1ccc(OC)cc1 [Compound 20c, 2-Ethyl-1-(4-methoxybenzenesulfonyl)-1H-pyrrole] | 5 |  | 
COC(=O)c1ccc2c(ccn2S(=O)(=O)c2c(C)cc(C)cc2C)c1 [Compound 22b, 1-(2,4,6-Trimethylbenzenesulfonyl)-1H-indole-5-carboxylic acid methyl ester] | <0.13 | < 3.52 | EPAC2 inhibitory activity (in words) [1]: dramatic loss of activity
Cc1cc(C)c(S(=O)(=O)c2ccc(C3CCCCC3)cc2)c(C)c1 [Compound 5c, 2-(4-Cyclohexylbenzenesulfonyl)-1,3,5-trimethylbenzene] | <0.13 | < 3.52 | 
Cc1cc(C)c(S(=O)(=O)c2ccc(-c3ccc(F)nc3)cc2)c(C)c1 [Compound 9, 2-Fluoro-5-[4-(2,4,6-trimethylbenzenesulfonyl)phenyl]pyridine] | <0.13 | < 3.52 | 
Cc1cc(C)c(S(=O)(=O)n2ccc3cnccc32)c(C)c1 [Compound 24b, 1-(2,4,6-Trimethylbenzenesulfonyl)-1H-pyrrolo[3,2-c]pyridine] | 4.5 |  | 

From PMC3574212 (Journal of medicinal chemistry, 2013)
